Test systems include A549; BT-549; DU-145; HCC 2998; HCT-15; HOP-92; IGROV-1; MCF7; MDA-MB-435; MDA-N; MOLT-4; NCI-H23; NCI-H460; NCI-H522; OVCAR-8; RPMI-8226; SK-OV-3; TK-10; OVCAR-5; U-251.
Experiment in all cases: NCI-60 cell line screen, 48 h

The record followed here is ChEMBL document CHEMBL1201862, “PubChem BioAssay data set” (2004).

Each structure is given as a SMILES string.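 Five concentrations, 48 hours, 96-well plates. At the GI50, growth is halved.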 Activity calls are given as the source filed them. Rule as the data show it: active = GI50 up to about 1.1 µM and inactive = higher.

For `O=C(O)CSC1=NC(=O)C2(NN1)c1ccccc1-c1ccccc12`, the GI50 in the assay with A549 is > 10 µM (inactive); in the assay with BT-549 it was > 10 µM (inactive); with DU-145 it was > 10 µM (inactive); in the assay on HCC 2998, > 10 µM (inactive); in the assay with HCT-15, over 10 µM; in the assay on HOP-92 it was > 10 µM (inactive). The GI50 in the assay on IGROV-1, with MCF7, in the assay on MDA-MB-435, with MDA-N, in the assay on MOLT-4 and with NCI-H23 was > 10 µM (inactive) in each case. Besides, the GI50 in the assay with NCI-H460, with NCI-H522, in the assay on OVCAR-8, in the assay on RPMI-8226, with SK-OV-3 and with TK-10 was > 10 µM (inactive) throughout.
In the case of `O=c1[nH][nH]c(=O)c2c1ccc1oc3ccccc3c12`, the GI50 is > 100 µM (inactive) in the assay on A549; > 100 µM (inactive) in the assay on BT-549; > 100 µM (inactive) with DU-145; 99.3 µM (inactive) in the assay on HCC 2998; > 100 µM (inactive) with HOP-92; > 100 µM (inactive) with IGROV-1. In addition, the GI50 with MCF7, in the assay with MDA-MB-435, in the assay with MDA-N, in the assay on MOLT-4, with NCI-H23 and in the assay on NCI-H460 was > 100 µM (inactive) each time. Further, the GI50 in the assay with NCI-H522, in the assay on OVCAR-5, in the assay with OVCAR-8, in the assay with RPMI-8226, with SK-OV-3 and with TK-10 was > 100 µM (inactive) in each case. The GI50 with U-251 is > 100 µM (inactive).
Consider `CC1CN=C(Nc2cccc(F)c2)S1` (stereo not given), for which the GI50 in the assay with A549 was > 100 µM (inactive); in the assay on BT-549, > 100 µM (inactive); in the assay with DU-145, > 100 µM (inactive); with HCC 2998 it was > 100 µM (inactive); in the assay on HCT-15, over 100 µM; in the assay with HOP-92, > 100 µM (inactive). Also, the GI50 in the assay with IGROV-1, in the assay on MCF7, in the assay with MDA-MB-435, in the assay on MDA-N, with NCI-H23 and with NCI-H522 was > 100 µM (inactive) in each case. For the same compound, the GI50 in the assay on OVCAR-5, in the assay on OVCAR-8, in the assay with RPMI-8226, in the assay with SK-OV-3, in the assay with TK-10 and with U-251 was > 100 µM (inactive) in each case.
Take `CC1=C2NCN(C)N=C2C(C#N)(C#N)C1(C#N)C#N`: the GI50 was > 78.5 µM (inactive) in the assay with A549; 21.6 µM (inactive) with BT-549; 42.3 µM (inactive) in the assay with DU-145; 21 µM (inactive) with HCC 2998; 21 µM with HCT-15; 15.4 µM (inactive) with HOP-92. Besides, the GI50 in the assay with IGROV-1 was 24.8 µM (inactive); in the assay with MCF7, 19.8 µM (inactive); in the assay with MDA-MB-435 it was 21.7 µM (inactive); in the assay with MDA-N, 15.6 µM (inactive); with MOLT-4, 2.56 µM (inactive); with NCI-H23, 14.1 µM (inactive). Further, the GI50 with NCI-H522 was 8.87 µM (inactive); with OVCAR-5, 33.5 µM (inactive); in the assay on OVCAR-8, 27 µM (inactive); in the assay on RPMI-8226, 10.9 µM (inactive); with SK-OV-3 it was > 100 µM (inactive); with TK-10, 16.4 µM (inactive). Also, the GI50 with U-251 was 28.9 µM (inactive).
For the compound `Clc1ccc(NCc2nnc(CCCCCCCCc3nnc(CNc4ccc(Cl)cc4)o3)o2)cc1`, the GI50 with A549 was > 100 µM (inactive); with BT-549, > 100 µM (inactive); with DU-145 it was > 100 µM (inactive); with HCC 2998 it was > 100 µM (inactive); in the assay with HCT-15, over 100 µM; in the assay on HOP-92 it was > 100 µM (inactive). Further, the GI50 in the assay on MCF7, in the assay on MDA-MB-435, in the assay on MDA-N, in the assay with MOLT-4, in the assay on NCI-H23 and with NCI-H460 was > 100 µM (inactive) each time. Also, the GI50 in the assay on NCI-H522, with OVCAR-5, in the assay with OVCAR-8, in the assay with RPMI-8226, with SK-OV-3 and in the assay with TK-10 was > 100 µM (inactive) in each case. For the same compound, the GI50 with U-251 is > 100 µM (inactive).
In the case of `CCCC(=O)NC(Nc1cc(C)ccn1)(C(=O)OCC)C(F)(F)F` (stereo not given), the GI50 was > 100 µM (inactive) with A549; > 100 µM (inactive) in the assay on BT-549; > 100 µM (inactive) in the assay on DU-145; > 100 µM (inactive) with HCC 2998; over 100 µM with HCT-15; 91 µM (inactive) in the assay on HOP-92. Also, the GI50 with IGROV-1, with MCF7, in the assay with MDA-MB-435, with MDA-N, in the assay on MOLT-4 and with NCI-H23 was > 100 µM (inactive) in each case. The GI50 in the assay on NCI-H522, with OVCAR-5, with OVCAR-8, in the assay on RPMI-8226, in the assay on SK-OV-3 and in the assay with TK-10 was > 100 µM (inactive) in each case. For the same compound, the GI50 with U-251 was > 100 µM (inactive).
For the compound `CCOC(=O)/C(C#N)=C/Nc1c(C)n(C)n(-c2ccccc2)c1=O`, the GI50 with A549 is > 100 µM (inactive); in the assay with BT-549, > 100 µM (inactive); with DU-145, > 100 µM (inactive); in the assay with HCC 2998 it was > 100 µM (inactive); in the assay on HCT-15 it was over 100 µM; with HOP-92, > 100 µM (inactive). Further, the GI50 in the assay with IGROV-1, with MCF7, in the assay with MDA-MB-435, in the assay with MDA-N, with MOLT-4 and with NCI-H23 was > 100 µM (inactive) throughout. Also, the GI50 in the assay on NCI-H522, in the assay with OVCAR-5, in the assay with OVCAR-8, with RPMI-8226, with SK-OV-3 and with TK-10 was > 100 µM (inactive) each time. Also, in the assay on U-251, the GI50 is > 100 µM (inactive).
Regarding `C=C[C@H]1CN2CCc3c([nH]c4c([C@H]5CCCN5C)c(O)ccc34)[C@@H]2C[C@@H]1C[C@H]1c2[nH]c3ccccc3c2CCN1C` [STRYCHNOPENTAMINE], the GI50 in the assay with A549 was 1.55 µM (inactive); in the assay with BT-549 it was 1.94 µM (inactive); with DU-145, 1.63 µM (inactive); in the assay on HCC 2998, 0.388 µM (active); in the assay with HCT-15 it was 0.899 µM; in the assay with HOP-92, 1.58 µM (inactive). The GI50 in the assay on IGROV-1 was 1.59 µM (inactive); in the assay with MCF7 it was 0.776 µM (active); in the assay with MDA-MB-435, 1.43 µM (inactive); in the assay with MDA-N, 1.35 µM (inactive); in the assay with NCI-H23, 1.85 µM (inactive); with NCI-H460 it was 1.48 µM (inactive). Besides, the GI50 with NCI-H522 was 1.79 µM (inactive); with OVCAR-5 it was 1.72 µM (inactive); in the assay on OVCAR-8 it was 1.23 µM (inactive); in the assay with RPMI-8226, 0.653 µM (active); in the assay on SK-OV-3 it was 1.77 µM (inactive); in the assay with TK-10 it was 1.83 µM (inactive). In the assay on U-251, the GI50 is 1.43 µM (inactive).
